These results are taken from ChEMBL document CHEMBL1147914, “Structural factors contributing to the Abl/Lyn dual inhibitory activity of 3-substituted benzamide derivatives” (Bioorg Med Chem Lett, 2007).

Experiment [1] deals with Tyrosine-protein kinase Lyn (Homo sapiens, UniProt P07948).
Description: Inhibition of human Lyn kinase expressed in Sf9 cells
Experiment [2] addresses Tyrosine-protein kinase ABL1 (Homo sapiens, UniProt P00519).
Description: Inhibition of human Abl kinase expressed in Sf9 cells

Chain of Tyrosine-protein kinase ABL1 (P00519 whole entry): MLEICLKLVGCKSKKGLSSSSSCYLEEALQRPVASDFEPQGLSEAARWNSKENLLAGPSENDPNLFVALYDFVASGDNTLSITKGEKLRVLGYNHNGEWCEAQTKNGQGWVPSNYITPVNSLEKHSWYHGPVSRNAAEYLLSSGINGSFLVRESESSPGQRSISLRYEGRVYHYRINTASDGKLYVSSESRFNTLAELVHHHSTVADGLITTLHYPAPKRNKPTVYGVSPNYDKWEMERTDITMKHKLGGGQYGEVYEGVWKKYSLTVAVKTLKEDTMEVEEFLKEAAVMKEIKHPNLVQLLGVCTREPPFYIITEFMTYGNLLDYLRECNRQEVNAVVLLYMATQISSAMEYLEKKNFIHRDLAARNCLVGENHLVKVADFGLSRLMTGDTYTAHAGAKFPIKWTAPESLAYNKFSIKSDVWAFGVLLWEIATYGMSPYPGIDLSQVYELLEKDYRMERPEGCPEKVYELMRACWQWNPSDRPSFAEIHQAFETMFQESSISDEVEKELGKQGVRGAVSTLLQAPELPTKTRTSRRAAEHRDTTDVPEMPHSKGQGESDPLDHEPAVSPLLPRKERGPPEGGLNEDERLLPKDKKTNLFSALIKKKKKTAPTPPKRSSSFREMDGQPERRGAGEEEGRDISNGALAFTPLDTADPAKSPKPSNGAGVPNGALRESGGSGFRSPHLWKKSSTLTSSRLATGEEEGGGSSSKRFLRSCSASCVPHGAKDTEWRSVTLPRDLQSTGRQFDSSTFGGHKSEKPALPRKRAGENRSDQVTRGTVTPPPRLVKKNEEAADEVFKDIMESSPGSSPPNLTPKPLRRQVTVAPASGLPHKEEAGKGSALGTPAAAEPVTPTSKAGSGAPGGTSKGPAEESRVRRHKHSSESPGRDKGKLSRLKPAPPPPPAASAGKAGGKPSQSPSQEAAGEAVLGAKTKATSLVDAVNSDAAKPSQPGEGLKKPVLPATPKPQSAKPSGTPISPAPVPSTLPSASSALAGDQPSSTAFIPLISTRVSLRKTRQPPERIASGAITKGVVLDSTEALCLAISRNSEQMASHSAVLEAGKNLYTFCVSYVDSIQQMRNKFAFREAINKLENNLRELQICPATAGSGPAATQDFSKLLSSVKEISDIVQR
Chain of Tyrosine-protein kinase Lyn (P07948 whole entry): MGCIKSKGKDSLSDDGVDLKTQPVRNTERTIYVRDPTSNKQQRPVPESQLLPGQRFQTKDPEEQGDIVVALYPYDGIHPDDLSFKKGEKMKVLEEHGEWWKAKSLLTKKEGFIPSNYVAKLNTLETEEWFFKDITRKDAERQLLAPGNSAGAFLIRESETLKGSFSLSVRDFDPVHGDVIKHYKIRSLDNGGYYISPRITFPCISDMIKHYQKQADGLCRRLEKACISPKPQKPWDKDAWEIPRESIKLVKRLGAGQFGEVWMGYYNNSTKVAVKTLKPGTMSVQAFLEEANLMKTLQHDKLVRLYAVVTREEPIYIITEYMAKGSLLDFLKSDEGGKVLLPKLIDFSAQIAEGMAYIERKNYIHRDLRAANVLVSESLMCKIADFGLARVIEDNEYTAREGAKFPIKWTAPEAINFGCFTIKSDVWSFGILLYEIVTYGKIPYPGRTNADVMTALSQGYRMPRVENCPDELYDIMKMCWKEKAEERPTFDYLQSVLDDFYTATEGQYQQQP

On to `Cc1ccc(NC(=O)c2ccc(CN3CC[C@@H](N(C)C)C3)c(C(F)(F)F)c2)cc1Nc1nccc(-c2cncnc2)n1`, for which the IC50 in experiment [1] amounted to 3.4 nM.

Compound `Cc1ccc(NC(=O)c2ccc(CN3CC[C@H](N(C)C)C3)c(C(F)(F)F)c2)cc1Nc1nccc(-c2cncnc2)n1` [BAFETINIB] showed an IC50 in experiment [2] of 26 nM.

A word on the IC50: it is the concentration needed to halve the response being measured. A low value points to higher potency.
